Some results are limits rather than exact numbers.

Holding throughout (type): in vivo
For series [1], the system named is Mythimna separata. Nature of the series: Insecticidal activity against Mythimna separata, Airbrush spray on maize leaf pieces. The note with it: 72 h, 0.05 mg/L, 3 days after the administration, 3rd-instar larvae, read-out: mortality rate against Mythimna separata. As for the experimental part: (§1) After the compound to be determined was dissolved in a mixed solvent of acetone/methanol (1:1), it was diluted with water containing 0.1% (wt) Tween-80 to a desired concentration.
(§2) Mythimna separata, Diamondback moth, Chilo suppressalis, Spodoptera exigua, Myzus persicae, and Franklinella occidentalis were used as targets, and the activity was tested by an Airbrush spray method.
Determination method: maize leaves were cut into 2 cm leaf pieces, and the front and back of each leaf piece were sprayed under an Airbrush spray treatment pressure of 10 psi (approximate to 0.7 kg/cm^2) and with a spray volume of 0.5 mL. After drying in the shade, 10 3rd-instar larvae were inoculated for each treatment, and each treatment was repeated for 3 times. After the treatment, the leaf pieces were put into an observation chamber at 25° C. and with a relative humidity of 60% to 70%, and the number of living larvae was investigated 3 days after the administration of the compounds, and the mortality rates were calculated.

In series [2] the test system is Diamondback moth. Nature of the series: Insecticidal activity against Diamondback moth, Airbrush spray on cabbage leaf discs. The following applies: Plutella xylostella, foliar, 72 h, 3 days after the administration; for mortality at 1.25 µg/mL: 1.25 mg/L, 3rd-instar larvae, read-out: mortality rate against Diamondback moth; for mortality at 10 µg/mL: 10 mg/L, read-out: Mortality rate (%, 3 days after the administration) 10 mg/L. As to the method: as §1, §2
Determination method: cabbage leaves were formed into leaf discs having a diameter of 2 cm using a puncher, and the front and back of each leaf disc were sprayed under an Airbrush spray treatment pressure of 10 psi (approximate to 0.7 kg/cm^2) and with a spray volume of 0.5 mL. After drying in the shade, 10 3rd-instar larvae were inoculated for each treatment, and each treatment was repeated for 3 times. After the treatment, the leaf discs were placed into an observation chamber at 25° C. and with a relative humidity of 60% to 70%, and the number of living larvae was investigated 3 days after the administration of the compounds, and the mortality rates were calculated.

Series [3] concerns Chilo suppressalis. Briefly: Insecticidal activity against Chilo suppressalis, sprayed rice stems. The note with it: 72 h, 0.625 mg/L, 3 days after the administration, 3rd-instar larvae, read-out: mortality rate against Chilo suppressalis. As to the method:
as §1, §2
Determination method: 1) Preparation of rice seedlings: rice was cultured in a plastic small cup with a diameter of 4.5 cm and a height of 4 cm in a constant temperature room (the temperature was 26-28° C., the relative humidity was about 60-80%, and the illumination was 16hL:8hD), when the rice grown to a 4-5 leaf stage, robust and uniformly grown rice seedlings were selected for pharmaceutical treatment, and 3 replicates were set for each treatment. 2) Preparation of test insects: 3rd-instar larvae of Chilo suppressalis were continuously reared indoors. 3) Rice stems were sprayed and insects were introduced. A spray method was used to treat whole rice seedlings with uniform spray, and each treatment was 15 mL. Blank controls were treated firstly, and then the above operation was repeated in an order of experimental concentrations from low to high. After the spray treatment of the rice seedlings, they were placed in the shade to air-dry drug liquid, about 5 cm of the stem from a basal part of the stem was cut and fed to the test insects. A glass culture dish with a diameter of 90 mm was prepared, filter paper was placed on the bottom of the dish, then water was added to moisturize. About 5 rice stems were placed in each dish, 10 larvae were introduced, and the culture dish was closed with non-woven fabric and placed in the constant-temperature room for culture. 3 days after the administration, the number of residual live insects was investigated.

Series [4] has as its system Spodoptera exigua. Nature of the series: Insecticidal activity against Spodoptera exigua, leaf disc dipping feeding method. The note with it: foliar, 72 h, 0.625 mg/L, 3 days after the administration, read-out: mortality rate against Spodoptera exigua. As for the experimental part:
After the compound to be determined was dissolved in a mixed solvent of acetone/methanol (1:1), it was diluted with water containing 0.1% (wt) Tween-80 to a desired concentration. […]
Determination method: the activity was tested by using a leaf disc dipping feeding method. Leaf discs were dipped in a drug solution for 10 s, and placed in a culture dish after being air-dried, there were 4 discs in each dish, and a filter paper was placed in the culture dish for moisture retention. 10 test insects of Spodoptera exigua were introduced to each dish, with 3 replicates.
They were placed in a light incubator for culture at a temperature of 25° C. and an illumination of 14hL:10hD. On the 1st, 2nd, and 3rd day after the administration, the number of dead Spodoptera exigua was investigated and the mortality rate was calculated.

Series [5] has as its system Myzus persicae. Briefly: Insecticidal activity against Myzus persicae, Airbrush spray on cabbage leaves. The following applies: 50 mg/L, after 48 h, read-out: mortality rate against Myzus persicae. As to the method:
as §1, §2
Determination method: a culture dish with a diameter of 6 cm was taken, the bottom of the dish was covered by a layer of filter paper, and an appropriate amount of tap water was added to moisturize the paper. Cabbage leaves with an appropriate size (the diameter was about 3 cm) and 15-30 aphids grown were cut from cabbage plants used to culture Myzus persicae, winged aphids and aphids on the front of the leave were removed, and it was placed in the culture dish while the back of the leave was upward. The pressure of airbrush spray treatment was 10 psi (about 0.7 kg/cm^2), the liquid spray volume was 0.5 mL, and there were 3 replicates for each treatment. After the treatment, the leave was put into an observation room for culture at 25° C. and a relative humidity of 60-70%. After 48 h, the number of live insects was investigated and the mortality rate was calculated.

Series [6] has as its system Franklinella occidentalis. Nature of the series: Insecticidal activity against Franklinella occidentalis nymphs, sprayed bean leaves. As for the experimental part:
as §1, §2
Determination method: fresh bean leaves cultivated in a greenhouse were selected, a hand-held Airbrush sprayer was used to spray uniformly, each treatment was 1 mL, and after being air-dried naturally, the leaves were placed in a finger-shaped tube. Neat and healthy Franklinella occidentalis nymphs were introduced, there were 15 nymphs for each treatment, 3 replicates were set for the experiment, and water treatment was set as a blank control. After the treatment, the leaves were put into an indoor culture room for culture at 24° C., a relative humidity of 60-70%, and natural light. After 72 h, the number of live insects was investigated and the mortality rate was calculated.

Series [7] concerns cat flea. Nature of the series: Insecticidal experiment on cat flea, thin film in culture dish. The following applies: Ctenocephalides felis, 72 h, read-out: mortality rate, cat flea. As to the method: 4 mg of the compound to be determined was dissolved in 40 mL of acetone to obtain an acetone solution with a concentration of 100 mg/L. 400 μL of the drug solution was applied on the bottom and sides of a culture dish with an inner diameter of 5.3 cm, then after acetone was evaporated, a thin film of the compound of the present invention was made on the inner wall of the culture dish. The inner wall of the culture dish used was 40 cm^2, and the treatment dosage was 1 μg/cm^2. 10 adult cat fleas (mixed male and female) were put into the dish, and it was stored in a constant-temperature room at 25° C. after being covered. The number of dead insects after 72 h was checked and the mortality rate was calculated. The experiment was repeated for 3 times.

As to `C=CCN(C(=O)c1ccccc1)c1cccc(C(=O)Nc2c(Br)cc(C(F)(C(F)(F)F)C(F)(F)F)cc2C(F)(F)F)c1F` [Compound 3], the mortality at 0.05 µg/mL in series [1] was greater than 90%. Moreover, the mortality at 0.156 µg/mL in series [2] (0.156 mg/L, Diamondback moth, read-out: Mortality rate (%, 3 days after the administration) 0.156 mg/L) stood at 100%. Besides, in series [2] (0.313 mg/L, Diamondback moth, read-out: Mortality rate (%, 3 days after the administration) 0.313 mg/L), the mortality at 0.313 µg/mL came to 100%. In addition, in series [2], the mortality at 1.25 µg/mL is greater than 90%. The mortality at 10 µg/mL in series [2] (Diamondback moth) stood at 100%. Moreover, the mortality at 0.625 µg/mL in series [3] and in series [4] was greater than 90% in each case. Also, in series [5], the mortality at 50 µg/mL was greater than 90%. Besides, the “Mortality rate (%, 3 days after the administration) 10 mg/L” value in series [6] (10 mg/L) was determined as 93.33%. For the same molecule, the “Mortality rate (%, 3 days after the administration) 100 mg/L” value in series [6] (100 mg/L) was 100%. Moreover, the mortality at 1 µg/cm2 in series [7] was greater than 90%.
As for `C=CCN(C(=O)c1ccc(C(F)(F)F)nc1)c1cccc(C(=O)Nc2c(Br)cc(C(F)(C(F)(F)F)C(F)(F)F)cc2C(F)(F)F)c1F` [Compound 27], in series [1], the mortality at 0.05 µg/mL is greater than 90%. Besides, the mortality at 1.25 µg/mL in series [2] is greater than 90%. For the same molecule, in series [2] (Diamondback moth), the mortality at 10 µg/mL came to 100%. The mortality at 0.625 µg/mL in series [3] and in series [4] was greater than 90% each time. Besides, in series [5], the mortality at 50 µg/mL is greater than 90%. Further, the mortality at 1 µg/cm2 in series [7] was greater than 90%.
Regarding `C=CCN(C(=O)c1ccc(C(F)(F)F)nc1)c1cccc(C(=O)Nc2c(I)cc(C(F)(C(F)(F)F)C(F)(F)F)cc2C(F)(F)F)c1F` [Compound 28], the mortality at 0.05 µg/mL in series [1] was greater than 90%. The mortality at 1.25 µg/mL in series [2] is greater than 90%. The mortality at 10 µg/mL in series [2] (Diamondback moth) worked out at 100%. Also, the mortality at 0.625 µg/mL in series [3] and in series [4] was greater than 90% each time. The mortality at 50 µg/mL in series [5] was greater than 90%. For the same molecule, the mortality at 1 µg/cm2 in series [7] is greater than 90%.
As for `C#CCN(C(=O)c1ccccc1)c1cccc(C(=O)Nc2c(I)cc(C(F)(C(F)(F)F)C(F)(F)F)cc2C(F)(F)F)c1F` [Compound 32], the mortality at 0.05 µg/mL in series [1] is greater than 90%. In series [2], the mortality at 1.25 µg/mL is greater than 90%. The mortality at 10 µg/mL in series [2] (Diamondback moth) was 100%. For the same molecule, the mortality at 0.625 µg/mL in series [3] and in series [4] was greater than 90% throughout. The mortality at 50 µg/mL in series [5] was greater than 90%. The mortality at 1 µg/cm2 in series [7] was greater than 90%.
As to `C#CCN(C(=O)c1ccc(C#N)cc1)c1cccc(C(=O)Nc2c(Br)cc(C(F)(C(F)(F)F)C(F)(F)F)cc2C(F)(F)F)c1F` [Compound 39], in series [1], the mortality at 0.05 µg/mL was greater than 90%. Further, the mortality at 1.25 µg/mL in series [2] is greater than 90%. Also, the mortality at 10 µg/mL in series [2] (Diamondback moth) is 100%. Also, the mortality at 0.625 µg/mL in series [3] and in series [4] was greater than 90% each time. Besides, the mortality at 50 µg/mL in series [5] was greater than 90%. Besides, in series [7], the mortality at 1 µg/cm2 was greater than 90%.
For the molecule `C#CCN(C(=O)c1ccc(C#N)cc1)c1cccc(C(=O)Nc2c(I)cc(C(F)(C(F)(F)F)C(F)(F)F)cc2C(F)(F)F)c1F` [Compound 40], the mortality at 0.05 µg/mL in series [1] is greater than 90%. Moreover, in series [2], the mortality at 1.25 µg/mL is greater than 90%. In addition, the mortality at 10 µg/mL in series [2] (Diamondback moth) is 100%. Besides, the mortality at 0.625 µg/mL in series [3] and in series [4] was greater than 90% in each case. Besides, in series [5], the mortality at 50 µg/mL was greater than 90%. Besides, the mortality at 1 µg/cm2 in series [7] was greater than 90%.
With `C#CCN(C(=O)c1ccc(C#N)nc1)c1cccc(C(=O)Nc2c(Br)cc(C(F)(C(F)(F)F)C(F)(F)F)cc2C(F)(F)F)c1F` [Compound 51], the mortality at 0.05 µg/mL in series [1] was greater than 90%. Moreover, the mortality at 1.25 µg/mL in series [2] was greater than 90%. The mortality at 10 µg/mL in series [2] (Diamondback moth) was 100%. The mortality at 0.625 µg/mL in series [3] and in series [4] was greater than 90% throughout. In addition, the mortality at 50 µg/mL in series [5] is greater than 90%. The mortality at 1 µg/cm2 in series [7] is greater than 90%.
As for `C#CCN(C(=O)c1ccc(C#N)nc1)c1cccc(C(=O)Nc2c(I)cc(C(F)(C(F)(F)F)C(F)(F)F)cc2C(F)(F)F)c1F` [Compound 52], the mortality at 0.05 µg/mL in series [1] was greater than 90%. Further, the mortality at 1.25 µg/mL in series [2] is greater than 90%. In addition, the mortality at 10 µg/mL in series [2] (Diamondback moth) amounted to 100%. The mortality at 0.625 µg/mL in series [3] and in series [4] was greater than 90% in each case. Also, in series [5], the mortality at 50 µg/mL was greater than 90%. The mortality at 1 µg/cm2 in series [7] is greater than 90%.
For the molecule `C#CCN(C(=O)c1ccc(C(F)(F)F)nc1)c1cccc(C(=O)Nc2c(Br)cc(C(F)(C(F)(F)F)C(F)(F)F)cc2C(F)(F)F)c1F` [Compound 55], in series [1], the mortality at 0.05 µg/mL was greater than 90%. Also, the mortality at 1.25 µg/mL in series [2] is greater than 90%. In addition, the mortality at 10 µg/mL in series [2] (Diamondback moth) amounted to 100%. In addition, the mortality at 0.625 µg/mL in series [3] and in series [4] was greater than 90% in each case. Also, the mortality at 50 µg/mL in series [5] is greater than 90%. For the same molecule, the mortality at 1 µg/cm2 in series [7] was greater than 90%.
In the case of `C#CCN(C(=O)c1ccc(C(F)(F)F)nc1)c1cccc(C(=O)Nc2c(I)cc(C(F)(C(F)(F)F)C(F)(F)F)cc2C(F)(F)F)c1F` [Compound 56], in series [1], the mortality at 0.05 µg/mL was greater than 90%. Moreover, the mortality at 1.25 µg/mL in series [2] is greater than 90%. Besides, the mortality at 10 µg/mL in series [2] (Diamondback moth) came out at 100%. In addition, the mortality at 0.625 µg/mL in series [3] and in series [4] was greater than 90% throughout. Also, the mortality at 50 µg/mL in series [5] is greater than 90%. Also, the mortality at 1 µg/cm2 in series [7] is greater than 90%.

The values above are taken from US20240199552A1, “AMIDE COMPOUND AND USE THEREOF” (Metisa Biotechnology Co., Ltd, priority 2021, published 2024).
